Measurements from patent publication US8367831B2, “Heterocyclic compound or salt thereof and intermediate thereof” (priority 2006, dated 2013).
≈ marks a conversion by molar mass, not a printed value. Counter-ions that a name gives are not always drawn. Like-named read-outs stand apart in the source and are kept apart here.

Columns and labels:
S. aureus FDA209P = experiment: Susceptibility test 1: MIC by micro-dilution method; format: cell-based; conditions: Staphylococcus aureus, read-out: MIC (μg/mL) S. aureus FDA209P
Description: (§1) Test substances were initially dissolved in dimethylsulfoxide. Antibacterial activities (MICs) of the same compounds were determined by the micro-dilution method as recommended by the Japanese Society of Chemotherapy.
(§2) The bacteria cultured on Mueller-Hinton agar (MHA) plates at 35° C. overnight were suspended in sterile physiological saline in a concentration that was equivalent to 0.5 McFarland. The bacterial inoculum was prepared by 10-fold dilution of this suspension. Approximately 0.005 mL of the bacterial inoculum was inoculated into Cation-adjusted Mueller-Hinton broth (CAMHB, 100 μL/well) containing the test substance and was incubated at 35° C. overnight. The lowest concentration of the test substance at which no bacterial growth was macroscopically observed was determined as the MIC.

S. aureus F-3095 = experiment: as above; format: cell-based; conditions: Staphylococcus aureus
Description: as §1, §2

[1] = F3095, read-out: MIC (μg/mL) S. aureus F-3095
[2] = CAMHB, 35° C. overnight, lowest concentration with no macroscopic growth
[3] = F3095, F-3095 (MDRSA), CAMHB, 35° C. overnight, lowest concentration with no macroscopic growth, read-out: MIC (μg/mL) S. aureus F-3095

Compound	MIC (S. aureus FDA209P)	MIC (S. aureus F-3095; [1])	MIC (S. aureus FDA209P; [2])	MIC (S. aureus F-3095; [3])
COc1cnc2ccc(=O)n(CCN3CCC(NCc4ccc(C)c(F)c4)CC3)c2c1 [Example 17, 1-(2-(4-((3-fluoro-4-methylbenzyl)amino)piperidin-1-yl)ethyl)-7-methoxy-1,5-naphthyridin-2(1H)-one hydrochloride]	0.0039 µg/mL	0.0313 µg/mL	–	–
COc1ccc2ccc(=O)n(CCN3CCC(NCc4ccc5c(c4)OCCO5)CC3)c2n1 [Example 44, 1-(2-(4-((2,3-dihydro-1,4-benzodioxin-6-ylmethyl)amino)piperidin-1-yl)ethyl)-7-methoxy-1,8-naphthyridin-2(1H)-one hydrochloride]	0.0313 µg/mL	0.0313 µg/mL	–	–
COc1ccc2ccc(=O)n(CCN3CCC(NCc4cc5c(cn4)OCCO5)CC3)c2n1 [Example 45, 1-(2-(4-((2,3-dihydro(1,4)dioxino(2,3-c)pyridin-7-ylmethyl)amino)piperidin-1-yl)ethyl)-7-methoxy-1,8-naphthyridin-2(1H)-one hydrochloride]	0.0313 µg/mL	0.0625 µg/mL	–	–
COc1cnc2ccc(=O)n(CCN3CCC(NCc4cc5c(cn4)OCCCO5)CC3)c2c1 [Example 118, 1-(2-(4-((3,4-dihydro-2H-(1,4)dioxepino(2,3-c)pyridin-8-ylmethyl)amino)piperidin-1-yl)ethyl)-7-methoxy-1,5-naphthyridin-2(1H)-one hydrochloride]	0.0625 µg/mL	0.0625 µg/mL	–	–
CCc1ccc(CNC2CCN(CCn3c(=O)ccc4ncc(OC)cc43)CC2)nc1 [Example 123, 1-(2-(4-(((5-ethylpyridin-2-yl)methyl)amino)piperidin-1-yl)ethyl)-7-methoxy-1,5-naphthyridin-2(1H)-one hydrochloride]	0.0313 µg/mL	0.125 µg/mL	–	–
COc1cnc2ccc(=O)n(CCN3CCC(NCc4cc(-c5ccsc5)on4)CC3)c2c1 [Example 133, 7-methoxy-1-(2-(4-(((5-(3-thienyl)isoxazol-3-yl)methyl)amino)piperidin-1-yl)ethyl)-1,5-naphthyridin-2(1H)-one]	–	–	0.0078 µg/mL (≈ 0.0168 µM)	0.0156 µg/mL (≈ 0.0335 µM)
CCc1ncc(CNC2CCN(CCn3c(=O)ccc4ncc(OC)cc43)CC2)cc1F [Example 137, 1-(2-(4-(((6-ethyl-5-fluoropyridin-3-yl)methyl)amino)piperidin-1-yl)ethyl)-7-methoxy-1,5-naphthyridin-2(1H)-one hydrochloride]	0.0313 µg/mL	0.0625 µg/mL	–	–
COc1cnc2ccc(=O)n(CCN3CCC(NCc4cncc(-c5cccs5)c4)CC3)c2c1 [Example 141, 7-methoxy-1-(2-(4-(((5-(2-thienyl)pyridin-3-yl)methyl)amino)piperidin-1-yl)ethyl)-1,5-naphthyridin-2(1H)-one hydrochloride]	0.0313 µg/mL	0.0313 µg/mL	–	–
O=c1ccc2ncc(F)cc2n1CCN1CCC(NCc2cc(-c3ccco3)on2)CC1 [Example 143, 7-fluoro-1-(2-(4-(((5-(2-furyl)isoxazol-3-yl)methyl)amino)piperidin-1-yl)ethyl)-1,5-naphthyridin-2(1H)-one]	–	–	0.0313 µg/mL (≈ 0.0715 µM)	0.0313 µg/mL (≈ 0.0715 µM)
COc1cnc2ccc(=O)n(CCN3CCC(NCc4cc5c(cn4)OCCC5)CC3)c2c1 [Example 144, 1-(2-(4-((3,4-dihydro-2H-pyrano(2,3-c)pyridin-6-ylmethyl)amino)piperidin-1-yl)ethyl)-7-methoxy-1,5-naphthyridin-2(1H)-one hydrochloride]	0.0313 µg/mL	0.0313 µg/mL	–	–
Cc1cc(=O)n(CCN2CCC(NCc3cc4c(cn3)OCCO4)CC2)c2cc(F)cnc12 [Example 146, 1-(2-(4-((2,3-dihydro(1,4)dioxino(2,3-c)pyridin-7-ylmethyl)amino)piperidin-1-yl)ethyl)-7-fluoro-4-methyl-1,5-naphthyridin-2(1H)-one hydrochloride]	0.0625 µg/mL	0.0625 µg/mL	–	–
COc1cnc2ccc(=O)n(CCN3CCC(NCc4cncc(-c5ccco5)c4)CC3)c2c1 [Example 147, 1-(2-(4-(((5-(2-furyl)pyridin-3-yl)methyl)amino)piperidin-1-yl)ethyl)-7-methoxy-1,5-naphthyridin-2(1H)-one]	–	–	0.0313 µg/mL (≈ 0.0681 µM)	0.0625 µg/mL (≈ 0.136 µM)
